Results: patent US8885174B2, “Monitoring energy and matter fluxes by use of electromagnetic radiations” (priority 2009, dated 2014)
“Also recorded” adds a separate entry of the source. Where two headings read alike, the source gives them in different places.

What was measured:
[1] = target: T1, rat GABAA α1β2γ2s receptor expressed in HEK 293 cells (HEKGABA) (Rattus norvegicus, UniProt P18508+P62813+P63138); test: Whole-cell electrophysiology recording of GABAA current (IGABA, I/V curve) on HEKGABA cells; type: cell-based; conditions: GABA 3 μM or muscimol 1 μM, 30 s
Excerpt: HEKGABA cells: HEK 293 cells stably expressing configurations of rat GABAA receptors (HEKGABA) were generously given by Hoffmann-LaRoche (Basel, Switzerland). Briefly, cDNAs encoding rat GABAA α1, β2 and γ2s subunits were subcloned into the expression vectors pIRESpuro2, pIRESneo2 and pIREShygro2 vectors (Clontech, Mountain View, Calif.), respectively. The pIRES/GABAA α1, β2, γ2s, constructs were sequenced to confirm their nucleotide sequence and then cotransfected into HEK 293 cells at a ratio of 1:1:2 (plasmid mass ratio) using the lipofectamine 2000 kit according to the manufacturer's instructions (Invitrogen, Carlsbad, Calif., USA). […] Cell colonies were isolated and expression of the GABAA α1β2γ2s receptor was determined by [^3H] flumazenil binding.
Electrophysiology recording: All cultures were perfused in an artificial cerebrospinal fluid (ACSF) containing (in mM): NaCl 150, KCl 3, D-glucose, 10 HEPES 10, CaCl2 3, and mM MgCl2. […] They were recorded with pipettes containing 95 mM potassium-gluconate, 40 mM KCl, 10 mM Hepes, 2 mM MgCl2 (pH 7.3). […]
Offline analysis: The electrophysiological and optical recordings were analysed by using MATLAB 7.6 (Mathworks Software, Natick, Mass.) and all curves have been fitted by using ORIGIN 7.5 (Microcal Software, Northampton, Mass.). […]

[2] = target: T1, rat GABAA α1β2γ2s receptor expressed in HEK 293 cells (HEKGABA); type: cell-based; conditions: −100 mV, picrotoxin 30 μM; for effect on phase signal in HEKGABA (in words): GABA 3 μM, muscimol 1 μM, 30 s
Excerpt: HEKGABA cells: HEK 293 cells stably expressing configurations of rat GABAA receptors (HEKGABA) were generously given by Hoffmann-LaRoche (Basel, Switzerland). Briefly, cDNAs encoding rat GABAA α1, β2 and γ2s subunits were subcloned into the expression vectors pIRESpuro2, pIRESneo2 and pIREShygro2 vectors (Clontech, Mountain View, Calif.), respectively. The pIRES/GABAA α1, β2, γ2s, constructs were sequenced to confirm their nucleotide sequence and then cotransfected into HEK 293 cells at a ratio of 1:1:2 (plasmid mass ratio) using the lipofectamine 2000 kit according to the manufacturer's instructions (Invitrogen, Carlsbad, Calif., USA). Transfected cells were grown in minimal essential medium (Invitrogen) supplemented with 10% fetal calf serum (Invitrogen), 20 mM HEPES (Invitrogen) and 100 U/ml penicillin/100 μg/ml streptomycin (Invitrogen) for 48 hours and then, the cells were transferred to the selection medium containing 0.3 μg/ml puromycin (Clontech, Mountain View, Calif., USA), 300 μg/ml hygromycin B (Roche Diagnostics, Mannheim, Germany) and 200 μg/ml G418 (Invitrogen) for the generation of stable cell lines. Cell colonies were isolated and expression of the GABAA α1β2γ2s receptor was determined by [^3H] flumazenil binding.
(§1) Electrophysiology recording: All cultures were perfused in an artificial cerebrospinal fluid (ACSF) containing (in mM): […] (pH 7.4; Room temperature). For some experiments performed on HEK cells, picrotoxin (30 μM, Tocris) was added to the ACSF. […] Whole-cell recordings were made, and signals were amplified by using Multiclamp 700B amplifiers (Axon Instruments, Union City, Calif.) and digitized by means of an ITC-1600 interface (Instrutech, Great Neck, N.Y.) to a PC computer running Igor Pro (Wavemetrics, Portland, Oreg.). All currents (sampling interval, 5 kHz) were low-pass filtered (2 kHz). They were recorded with pipettes containing 95 mM potassium-gluconate, 40 mM KCl, 10 mM Hepes, 2 mM MgCl2 (pH 7.3). For some experiments, 95 mM potassium-gluconate was substituted with 95 mM KCl to reach a final concentration of [Cl^−]intrapip, to 139 mM. The pipettes were pulled with a DMZ universal puller.
Imaging: Holograms are acquired with a DHMT 1000 (Lyncée Tech SA, PSE-EPFL). A laser diode produces the coherent light (λ=683 nm) which is divided by a beam splitter into a reference wave and an object wave. The object wave diffracted by the specimen is collected by a microscope objective and interferes with a reference beam to produce the hologram recorded by the CCD camera. Frequency of hologram acquisition is 0.2 Hz. Reconstruction of the original image from the hologram is numerically achieved by a computer. The reconstruction algorithm provides simultaneous amplitude and quantitative phase images of the cells (Koala software).
Offline analysis: The electrophysiological and optical recordings were analysed by using MATLAB 7.6 (Mathworks Software, Natick, Mass.) and all curves have been fitted by using ORIGIN 7.5 (Microcal Software, Northampton, Mass.). […] All data are presented as means±SEM. Student's t-test (paired or unpaired) to determine statistical significance (p<0.05).

HEKnorm = test: DHM phase signal recording on non-transfected HEK cells (HEKnorm); type: cell-based; conditions: −100 mV, GABA 3 μM, 30 s
Method: as §1
Imaging: Holograms are acquired with a DHMT 1000 (Lyncée Tech SA, PSE-EPFL). […] The object wave diffracted by the specimen is collected by a microscope objective and interferes with a reference beam to produce the hologram recorded by the CCD camera. […] The reconstruction algorithm provides simultaneous amplitude and quantitative phase images of the cells (Koala software).

[3] = tested on: cortical neurons in primary culture; test: DHM multisite phase recording on unpatched cortical neurons in primary culture; type: cell-based, mice; conditions: GABA 100 μM, 30 s
Method: Neuronal cell cultures: Primary cultures of cortical neurons were prepared from E17 OF1 mice embryos. Briefly, embryos were decapitated and brains removed and placed in PBS-glucose. Cortex was removed under a dissecting microscope and collected in a small Petri dish in PBS-glucose. Cell dissociation was obtained by gentle trituration with a fire-polished Pasteur pipette in Neurobasal medium supplemented with B27 and GlutaMAX (Invitrogen). Cells were plated at an average density of 15000 cells/cm^2 in supplemented Neurobasal medium on poly-ornithine coated glass coverslips (20 mm Ø). After 3-4 h, coverslips were transferred to dishes containing glial cell monolayers in supplemented Neurobasal medium. Neurons were maintained at 37° C. in a humidified atmosphere of 95% air/5% CO2 and were used after 21-35 days in vitro (DIV).
Imaging: Holograms are acquired with a DHMT 1000 (Lyncée Tech SA, PSE-EPFL). A laser diode produces the coherent light (λ=683 nm) which is divided by a beam splitter into a reference wave and an object wave. The object wave diffracted by the specimen is collected by a microscope objective and interferes with a reference beam to produce the hologram recorded by the CCD camera. Frequency of hologram acquisition is 0.2 Hz. Reconstruction of the original image from the hologram is numerically achieved by a computer. The reconstruction algorithm provides simultaneous amplitude and quantitative phase images of the cells (Koala software). It is important to note that an extensive quality control of the DHM technique has been published by Rappaz et al “Comparative study of human erythrocytes by digital holographic microscopy, confocal microscopy, and impedance volume analyzer” Cytom Part A 73A, 895-903 (2008).
Neurons also presented heterogeneous phase responses.

T1 sequence (P63138 25-474): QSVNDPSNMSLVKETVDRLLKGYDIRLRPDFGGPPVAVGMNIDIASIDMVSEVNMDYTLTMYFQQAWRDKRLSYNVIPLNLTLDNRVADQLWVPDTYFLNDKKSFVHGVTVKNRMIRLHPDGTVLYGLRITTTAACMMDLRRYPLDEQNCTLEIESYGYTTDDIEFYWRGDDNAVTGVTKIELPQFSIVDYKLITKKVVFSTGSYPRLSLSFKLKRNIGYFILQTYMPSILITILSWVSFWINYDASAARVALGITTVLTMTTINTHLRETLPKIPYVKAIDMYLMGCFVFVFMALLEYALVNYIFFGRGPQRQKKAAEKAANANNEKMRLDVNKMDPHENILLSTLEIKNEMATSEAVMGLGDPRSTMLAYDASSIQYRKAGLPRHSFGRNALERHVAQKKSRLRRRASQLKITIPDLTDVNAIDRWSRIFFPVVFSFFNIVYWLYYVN
T1 sequence (P18508 39-466): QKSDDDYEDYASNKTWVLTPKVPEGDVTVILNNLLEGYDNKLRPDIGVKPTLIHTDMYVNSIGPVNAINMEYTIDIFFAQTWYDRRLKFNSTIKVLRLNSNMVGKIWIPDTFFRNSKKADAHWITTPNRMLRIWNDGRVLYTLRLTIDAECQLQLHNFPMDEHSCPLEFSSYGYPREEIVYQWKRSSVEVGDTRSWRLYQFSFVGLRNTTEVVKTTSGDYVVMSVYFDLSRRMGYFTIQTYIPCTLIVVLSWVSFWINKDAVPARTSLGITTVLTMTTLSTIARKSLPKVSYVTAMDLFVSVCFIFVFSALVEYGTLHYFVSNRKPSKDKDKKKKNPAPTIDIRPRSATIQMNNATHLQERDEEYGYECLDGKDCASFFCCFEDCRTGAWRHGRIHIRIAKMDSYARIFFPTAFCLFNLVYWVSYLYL
T1 sequence (P62813 28-455): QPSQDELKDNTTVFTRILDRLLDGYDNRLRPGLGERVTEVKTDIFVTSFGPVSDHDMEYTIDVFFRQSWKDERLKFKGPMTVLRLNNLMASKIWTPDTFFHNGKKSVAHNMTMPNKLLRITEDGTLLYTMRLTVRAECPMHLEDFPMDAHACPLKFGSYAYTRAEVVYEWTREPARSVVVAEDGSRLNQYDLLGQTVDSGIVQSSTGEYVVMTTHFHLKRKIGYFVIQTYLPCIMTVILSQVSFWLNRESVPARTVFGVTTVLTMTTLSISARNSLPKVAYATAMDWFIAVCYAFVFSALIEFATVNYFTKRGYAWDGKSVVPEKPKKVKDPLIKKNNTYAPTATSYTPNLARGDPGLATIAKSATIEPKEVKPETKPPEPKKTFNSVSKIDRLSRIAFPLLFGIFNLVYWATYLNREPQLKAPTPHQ

Compound: NCc1cc(=O)[nH]o1 [muscimol, Muscimol]
- reversal potential for Cl− (ECl) from I/V curve ([1]; [Cl−]intrapip 40 mM (44 mM elsewhere in the source)): −27 mV
- reversal potential for Cl− (ECl) from I/V curve ([1]; [Cl−]intrapip 139 mM): −4 mV
- effect on phase signal in HEKGABA (in words) [2]: mimicked the effect of GABA
- effect on phase signal in HEKGABA (in words) ([2]; listed as Muscimol): mimicked

Compound: picrotoxin
- change of phase response evoked by GABA in presence of antagonist ([2]; GABA 3 μM 30 s): −82±17%
- effect on phase signal in HEKGABA (in words) [2]: reduces the phase shift
- effect on phase signal in HEKGABA (in words) ([2]; listed as Picrotoxin): blocked

Compound: NCCCC(=O)O [GABA]
- effect on phase signal in HEKnorm (in words) (HEKnorm): no effect; also recorded: ineffective
- Δφ phase signal in HEKnorm (HEKnorm): 0.33±0.55 °
- phase response, neurons with increase of phase signal ([3]; 3 of 46 cells): 1.16+/−0.47 °
- phase response, neurons with decrease of phase signal ([3]; 13 of 46 cells): −2.55+/−0.29 °
- phase response, neurons with modest or no detectable signal ([3]; 30 of 46 cells): −0.16+/−0.2 °
